PMC8213057, “Targeting ALK2: An Open Science Approach to Developing Therapeutics for the Treatment of Diffuse Intrinsic Pontine Glioma” (Journal of Medicinal Chemistry, 2020)

Key:
CAMK2g = CAMK2g (Homo sapiens, UniProt Q13555); details: 1 μM; Run 1, Run 2
CTK/MATK = molecular target: T1, CTK/MATK (Homo sapiens, UniProt P42679); details: 1 μM; Run 1, Run 2
T1 sequence (P42679 1-507): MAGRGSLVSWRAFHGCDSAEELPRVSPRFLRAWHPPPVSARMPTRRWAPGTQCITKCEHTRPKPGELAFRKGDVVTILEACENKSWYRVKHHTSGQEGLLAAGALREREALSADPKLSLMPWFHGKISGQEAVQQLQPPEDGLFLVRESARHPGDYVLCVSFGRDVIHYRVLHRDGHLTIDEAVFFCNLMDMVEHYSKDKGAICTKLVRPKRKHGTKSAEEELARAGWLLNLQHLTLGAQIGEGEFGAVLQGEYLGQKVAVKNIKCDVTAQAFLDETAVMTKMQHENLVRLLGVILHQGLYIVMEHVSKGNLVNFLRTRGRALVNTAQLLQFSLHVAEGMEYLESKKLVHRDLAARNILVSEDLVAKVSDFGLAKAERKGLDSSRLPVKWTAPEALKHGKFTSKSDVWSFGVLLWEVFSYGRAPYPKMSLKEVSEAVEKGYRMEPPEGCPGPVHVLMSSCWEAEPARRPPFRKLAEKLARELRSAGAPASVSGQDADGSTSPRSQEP

GRK5 = GRK5 (Homo sapiens, UniProt P34947); details: 1 μM; Run 1, Run 2
RSK1 = RSK1 (Homo sapiens, UniProt Q15418); details: 1 μM; Run 1, Run 2
BMX/ETK = molecular target: T2, BMX/ETK (Homo sapiens, UniProt P51813); experiment: biochemical; details: read-out: % enzyme activity, 1 μM; Run 1, Run 2
T2 sequence (P51813 1-675): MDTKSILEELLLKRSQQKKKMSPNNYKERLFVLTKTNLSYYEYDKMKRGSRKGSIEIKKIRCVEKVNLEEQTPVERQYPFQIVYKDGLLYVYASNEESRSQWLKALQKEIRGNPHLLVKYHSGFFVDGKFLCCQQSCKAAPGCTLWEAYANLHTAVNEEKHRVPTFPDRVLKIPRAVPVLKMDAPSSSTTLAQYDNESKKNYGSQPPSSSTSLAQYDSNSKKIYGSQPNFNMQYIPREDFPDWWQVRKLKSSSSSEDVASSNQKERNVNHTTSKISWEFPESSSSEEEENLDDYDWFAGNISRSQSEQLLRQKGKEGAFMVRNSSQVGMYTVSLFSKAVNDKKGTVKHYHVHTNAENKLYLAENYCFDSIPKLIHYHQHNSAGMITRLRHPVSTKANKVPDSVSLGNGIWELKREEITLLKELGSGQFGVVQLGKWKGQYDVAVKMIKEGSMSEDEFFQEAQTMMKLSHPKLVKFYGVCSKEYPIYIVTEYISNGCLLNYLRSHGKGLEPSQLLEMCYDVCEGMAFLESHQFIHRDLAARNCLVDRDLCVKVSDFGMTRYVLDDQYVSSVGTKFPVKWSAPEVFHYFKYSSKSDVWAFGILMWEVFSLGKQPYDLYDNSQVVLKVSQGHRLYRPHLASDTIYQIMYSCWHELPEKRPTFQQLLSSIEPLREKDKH

LIMK1 = LIMK1 (Homo sapiens, UniProt P53667); experiment: biochemical; details: read-out: % enzyme activity, 1 μM; Run 1, Run 2
STK33 = STK33 (Homo sapiens, UniProt Q9BYT3); experiment: biochemical; details: read-out: % enzyme activity, 1 μM; Run 1, Run 2
YSK4/MAP3K19 = molecular target: T3, YSK4/MAP3K19 (Homo sapiens, UniProt Q56UN5); experiment: biochemical; details: read-out: % enzyme activity, 1 μM; Run 1, Run 2
T3 sequence (Q56UN5 1-1328): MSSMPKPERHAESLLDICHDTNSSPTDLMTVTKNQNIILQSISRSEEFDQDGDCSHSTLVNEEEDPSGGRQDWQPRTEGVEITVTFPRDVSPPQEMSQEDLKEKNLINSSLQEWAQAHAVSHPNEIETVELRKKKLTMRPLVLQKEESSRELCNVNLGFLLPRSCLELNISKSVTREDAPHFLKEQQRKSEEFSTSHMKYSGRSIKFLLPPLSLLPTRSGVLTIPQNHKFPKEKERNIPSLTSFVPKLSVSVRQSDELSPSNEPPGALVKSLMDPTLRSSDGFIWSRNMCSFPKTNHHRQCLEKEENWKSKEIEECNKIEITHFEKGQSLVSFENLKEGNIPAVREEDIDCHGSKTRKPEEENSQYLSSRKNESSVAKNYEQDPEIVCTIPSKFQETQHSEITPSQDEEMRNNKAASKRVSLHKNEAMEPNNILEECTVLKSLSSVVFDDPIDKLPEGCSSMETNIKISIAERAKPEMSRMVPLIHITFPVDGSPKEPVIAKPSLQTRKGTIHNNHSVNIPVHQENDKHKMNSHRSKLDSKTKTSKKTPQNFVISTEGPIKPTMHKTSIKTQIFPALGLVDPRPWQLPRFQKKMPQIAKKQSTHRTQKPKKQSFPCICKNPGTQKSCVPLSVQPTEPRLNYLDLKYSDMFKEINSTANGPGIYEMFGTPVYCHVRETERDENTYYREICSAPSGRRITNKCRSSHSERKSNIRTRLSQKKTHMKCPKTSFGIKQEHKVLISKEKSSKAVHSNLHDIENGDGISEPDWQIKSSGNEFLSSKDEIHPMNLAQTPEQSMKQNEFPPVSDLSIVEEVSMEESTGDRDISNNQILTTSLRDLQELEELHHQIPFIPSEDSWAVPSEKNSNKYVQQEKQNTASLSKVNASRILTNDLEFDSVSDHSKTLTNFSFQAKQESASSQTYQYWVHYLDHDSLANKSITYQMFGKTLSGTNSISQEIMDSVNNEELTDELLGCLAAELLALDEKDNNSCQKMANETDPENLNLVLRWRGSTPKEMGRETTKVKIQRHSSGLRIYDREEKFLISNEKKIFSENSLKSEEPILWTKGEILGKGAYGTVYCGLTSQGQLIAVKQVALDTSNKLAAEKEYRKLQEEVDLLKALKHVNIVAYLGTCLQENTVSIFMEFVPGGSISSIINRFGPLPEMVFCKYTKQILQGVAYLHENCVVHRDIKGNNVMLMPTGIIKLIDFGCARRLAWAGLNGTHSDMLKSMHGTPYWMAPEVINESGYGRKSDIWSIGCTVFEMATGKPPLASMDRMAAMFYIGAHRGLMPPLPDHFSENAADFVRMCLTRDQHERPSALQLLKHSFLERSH

Chain of GRK5 (P34947 whole entry): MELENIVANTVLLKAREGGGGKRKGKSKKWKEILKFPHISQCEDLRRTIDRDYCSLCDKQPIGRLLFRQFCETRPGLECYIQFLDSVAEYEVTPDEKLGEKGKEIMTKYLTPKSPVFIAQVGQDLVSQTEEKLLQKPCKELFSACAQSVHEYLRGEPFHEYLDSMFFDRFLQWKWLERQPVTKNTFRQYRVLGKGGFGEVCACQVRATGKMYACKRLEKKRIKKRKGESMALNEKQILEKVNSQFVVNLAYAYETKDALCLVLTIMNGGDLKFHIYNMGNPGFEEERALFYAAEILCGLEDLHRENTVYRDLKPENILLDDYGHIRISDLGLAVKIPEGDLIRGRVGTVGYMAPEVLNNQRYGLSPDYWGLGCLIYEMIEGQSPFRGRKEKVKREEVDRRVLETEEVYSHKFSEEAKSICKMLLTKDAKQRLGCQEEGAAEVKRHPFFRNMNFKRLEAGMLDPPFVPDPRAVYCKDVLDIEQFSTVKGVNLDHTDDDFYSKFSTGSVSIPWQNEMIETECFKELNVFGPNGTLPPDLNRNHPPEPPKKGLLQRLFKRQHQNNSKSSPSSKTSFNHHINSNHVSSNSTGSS
Chain of CAMK2g (Q13555 whole entry): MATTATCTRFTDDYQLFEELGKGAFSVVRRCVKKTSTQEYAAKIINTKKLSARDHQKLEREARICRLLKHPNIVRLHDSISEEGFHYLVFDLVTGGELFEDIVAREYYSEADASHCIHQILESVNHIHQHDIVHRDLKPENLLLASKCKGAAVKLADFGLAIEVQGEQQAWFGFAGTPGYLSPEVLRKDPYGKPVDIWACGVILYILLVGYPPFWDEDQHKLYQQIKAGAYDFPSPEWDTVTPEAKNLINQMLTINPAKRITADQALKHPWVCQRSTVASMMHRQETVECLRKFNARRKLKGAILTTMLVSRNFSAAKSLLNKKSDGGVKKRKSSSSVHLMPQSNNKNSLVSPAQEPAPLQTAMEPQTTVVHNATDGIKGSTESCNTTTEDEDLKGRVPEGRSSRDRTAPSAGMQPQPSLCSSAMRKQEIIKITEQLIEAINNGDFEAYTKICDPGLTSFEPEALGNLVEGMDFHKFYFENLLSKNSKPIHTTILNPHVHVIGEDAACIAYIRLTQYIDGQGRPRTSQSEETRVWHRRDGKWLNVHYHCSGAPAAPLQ
Chain of RSK1 (Q15418 whole entry): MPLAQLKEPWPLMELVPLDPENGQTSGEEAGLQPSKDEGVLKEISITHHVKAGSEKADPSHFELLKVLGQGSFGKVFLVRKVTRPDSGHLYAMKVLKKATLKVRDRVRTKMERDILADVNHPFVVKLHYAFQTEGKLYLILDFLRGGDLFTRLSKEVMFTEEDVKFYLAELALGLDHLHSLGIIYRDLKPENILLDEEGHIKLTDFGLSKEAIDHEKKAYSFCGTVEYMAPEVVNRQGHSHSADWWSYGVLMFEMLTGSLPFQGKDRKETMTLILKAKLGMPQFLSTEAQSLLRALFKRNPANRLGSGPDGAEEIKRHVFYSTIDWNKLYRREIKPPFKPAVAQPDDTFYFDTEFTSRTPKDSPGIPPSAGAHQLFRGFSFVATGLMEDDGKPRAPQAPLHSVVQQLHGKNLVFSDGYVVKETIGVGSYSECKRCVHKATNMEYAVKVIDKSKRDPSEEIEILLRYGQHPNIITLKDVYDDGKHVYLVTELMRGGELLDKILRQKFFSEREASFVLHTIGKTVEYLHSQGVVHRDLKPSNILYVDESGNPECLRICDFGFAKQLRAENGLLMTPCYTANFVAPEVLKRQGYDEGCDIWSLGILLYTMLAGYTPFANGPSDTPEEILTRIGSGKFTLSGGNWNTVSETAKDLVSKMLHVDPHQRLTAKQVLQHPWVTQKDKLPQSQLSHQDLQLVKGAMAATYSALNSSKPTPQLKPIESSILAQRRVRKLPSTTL
Chain of LIMK1 (P53667 whole entry): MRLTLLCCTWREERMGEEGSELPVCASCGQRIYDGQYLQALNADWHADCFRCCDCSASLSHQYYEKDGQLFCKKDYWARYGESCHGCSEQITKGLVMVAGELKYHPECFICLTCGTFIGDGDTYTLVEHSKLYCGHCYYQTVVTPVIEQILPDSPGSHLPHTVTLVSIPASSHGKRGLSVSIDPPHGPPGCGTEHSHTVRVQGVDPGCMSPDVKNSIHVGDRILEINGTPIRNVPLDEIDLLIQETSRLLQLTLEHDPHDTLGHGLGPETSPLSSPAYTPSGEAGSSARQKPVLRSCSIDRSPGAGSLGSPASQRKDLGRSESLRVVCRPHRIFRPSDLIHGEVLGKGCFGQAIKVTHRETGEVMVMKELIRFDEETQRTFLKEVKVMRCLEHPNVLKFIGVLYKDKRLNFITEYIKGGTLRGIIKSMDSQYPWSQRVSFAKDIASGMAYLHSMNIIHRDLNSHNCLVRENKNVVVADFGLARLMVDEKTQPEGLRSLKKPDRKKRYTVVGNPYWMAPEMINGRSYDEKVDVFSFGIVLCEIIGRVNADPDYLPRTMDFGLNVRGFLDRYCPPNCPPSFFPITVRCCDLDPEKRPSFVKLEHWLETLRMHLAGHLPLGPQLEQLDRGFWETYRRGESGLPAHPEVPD
Chain of STK33 (Q9BYT3 whole entry): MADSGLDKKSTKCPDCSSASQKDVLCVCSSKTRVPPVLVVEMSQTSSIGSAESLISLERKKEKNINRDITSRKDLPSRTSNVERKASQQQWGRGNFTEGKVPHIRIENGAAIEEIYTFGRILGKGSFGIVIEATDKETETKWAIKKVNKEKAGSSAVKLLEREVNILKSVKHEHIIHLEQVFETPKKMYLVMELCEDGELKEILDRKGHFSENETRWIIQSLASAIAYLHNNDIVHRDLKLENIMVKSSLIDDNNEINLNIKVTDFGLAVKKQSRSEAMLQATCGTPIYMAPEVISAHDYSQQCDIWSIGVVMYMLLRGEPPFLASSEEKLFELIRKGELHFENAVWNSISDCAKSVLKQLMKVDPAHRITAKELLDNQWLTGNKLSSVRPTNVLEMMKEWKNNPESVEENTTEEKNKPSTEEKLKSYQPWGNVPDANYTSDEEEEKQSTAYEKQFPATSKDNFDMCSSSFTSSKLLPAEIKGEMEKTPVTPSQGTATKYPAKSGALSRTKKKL

SMILES	% enzyme activity (CAMK2g) [%]	% enzyme activity (CTK/MATK) [%]	% enzyme activity (GRK5) [%]	% enzyme activity (RSK1) [%]	remaining activity at 1 µM (BMX/ETK) [%]	remaining activity at 1 µM (LIMK1) [%]	remaining activity at 1 µM (STK33) [%]	remaining activity at 1 µM (YSK4/MAP3K19) [%]
COc1cc(-c2cncc(-c3ccc(N4CCN(C)CC4)cc3)c2C)cc(F)c1C(N)=O [Compound 26a, 2-Fluoro-6-methoxy-4-(4-methyl-5-(4-(4-methylpiperazin-1-yl)phenyl)pyridin-3-yl)benzamide]	100.65	94.85	99.06	97.99	103	65.1	91	98.2
COc1cc(-c2cncc(-c3ccc(N4C[C@@H](C)N(C)[C@@H](C)C4)cc3)c2C)cc(F)c1C(N)=O [Compound 26c, 2-Fluoro-6-methoxy-4-(4-methyl-5-(4-((3R,5S)-3,4,5-trimethylpiperazin-1-yl)phenyl)pyridin-3-yl)benzamide]	107.66	98.62	91.62	101.00	102	74.2	97.4	97
